Four compounds from PubChem BioAssay (NCI) can be followed below.

Several values for one entry are separate records, joined by “and”; a condition that tells them apart may be missing. Equal values may be shown once.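 96-well plates; 48 h exposure; 5 concentrations. Endpoints by linear interpolation between flanking doses. Not reached: highest tested concentration assigned. Abbreviation: GI50, concentration required for 50% inhibition of growth. The concentration for full growth arrest is given as TGI.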

The first assay concerns HCT-116 colon. The assay is described as follows: growth of human tumour cells (NCI), 48 h.
Turning to `COC1CCC(N2C(=O)CNc3ncc(-c4ccc(C(C)(C)O)nc4)nc32)CC1` (stereo not given), the GI50 is 2070 nM and 809 nM; the TGI was > 10 µM and 13.8 µM.
`C#Cc1ccc(-n2c(/C=C/c3ccc(C(F)(F)F)cc3)nc3ncccc3c2=O)cc1`: the GI50 is 1630 nM and the TGI was 3.02 µM.
Compound `CC1=C(C(=O)NCc2ccccc2)C(/C=C/c2ccccc2)C(C(=O)NCc2ccccc2)=C(C)N1` yielded a TGI of over 100 µM.
The same measure, in the same setting: next, `C=C1C(=O)C23CC1CCC2C12CO[C@@H]4OCC(C)(CC[C@@H]1OC3=O)C42` (stereo not given in full): 6.33 µM.

The subject of the next assay is CCRF-CEM leukemia. The experiment in a line: growth of human tumour cells (NCI), 48 h.
With `COC1CCC(N2C(=O)CNc3ncc(-c4ccc(C(C)(C)O)nc4)nc32)CC1` (stereo not given), the GI50 was 1410 nM and 738 nM; the TGI is over 100 µM.
With `C#Cc1ccc(-n2c(/C=C/c3ccc(C(F)(F)F)cc3)nc3ncccc3c2=O)cc1`, the GI50 was 1950 nM and the TGI was over 100 µM.
For `CC1=C(C(=O)NCc2ccccc2)C(/C=C/c2ccccc2)C(C(=O)NCc2ccccc2)=C(C)N1`, the TGI is over 100 µM.
Still for that read-out and setting: next, `C=C1C(=O)C23CC1CCC2C12CO[C@@H]4OCC(C)(CC[C@@H]1OC3=O)C42` (stereo not given in full): 12.1 µM.

Another assay concerns OVCAR-8 ovarian. The assay is described as follows: growth of human tumour cells (NCI), 48 h.
Turning to `COC1CCC(N2C(=O)CNc3ncc(-c4ccc(C(C)(C)O)nc4)nc32)CC1` (stereo not given), the GI50 was 1270 nM and 436 nM; the TGI is over 35.2 µM.
As to `C#Cc1ccc(-n2c(/C=C/c3ccc(C(F)(F)F)cc3)nc3ncccc3c2=O)cc1`, the GI50 is 1870 nM and the TGI worked out at 4.67 µM.
In turn, `CC1=C(C(=O)NCc2ccccc2)C(/C=C/c2ccccc2)C(C(=O)NCc2ccccc2)=C(C)N1` registered a TGI of over 100 µM.
Still for that read-out and setting: next, `C=C1C(=O)C23CC1CCC2C12CO[C@@H]4OCC(C)(CC[C@@H]1OC3=O)C42` (stereo not given in full): 9.78 µM.

The next assay deals with IGROV1 ovarian. The experiment in a line: growth of human tumour cells (NCI), 48 h.
With `COC1CCC(N2C(=O)CNc3ncc(-c4ccc(C(C)(C)O)nc4)nc32)CC1` (stereo not given), the GI50 was 315 nM and 56.4 nM; the TGI is 2.8 µM and 1.64 µM.
With `C#Cc1ccc(-n2c(/C=C/c3ccc(C(F)(F)F)cc3)nc3ncccc3c2=O)cc1`, the GI50 was 1960 nM and the TGI is 4.02 µM.
`CC1=C(C(=O)NCc2ccccc2)C(/C=C/c2ccccc2)C(C(=O)NCc2ccccc2)=C(C)N1` showed a TGI of over 100 µM.
With `C=C1C(=O)C23CC1CCC2C12CO[C@@H]4OCC(C)(CC[C@@H]1OC3=O)C42` (stereo not given in full), the TGI came out at 14.1 µM.

In a further assay the test system is OVCAR-5 ovarian. The experiment in a line: growth of human tumour cells (NCI), 48 h.
As to `COC1CCC(N2C(=O)CNc3ncc(-c4ccc(C(C)(C)O)nc4)nc32)CC1` (stereo not given), the GI50 was 918 nM and 273 nM; the TGI was over 44.8 µM.
Consider `C#Cc1ccc(-n2c(/C=C/c3ccc(C(F)(F)F)cc3)nc3ncccc3c2=O)cc1`, for which the GI50 was 1940 nM and the TGI was 3.56 µM.
In turn, `CC1=C(C(=O)NCc2ccccc2)C(/C=C/c2ccccc2)C(C(=O)NCc2ccccc2)=C(C)N1` displayed a TGI of over 100 µM.
`C=C1C(=O)C23CC1CCC2C12CO[C@@H]4OCC(C)(CC[C@@H]1OC3=O)C42` (stereo not given in full) had a TGI of 29.2 µM.

The subject of the next assay is SF-539 CNS. The experiment in a line: growth of human tumour cells (NCI), 48 h.
On to `COC1CCC(N2C(=O)CNc3ncc(-c4ccc(C(C)(C)O)nc4)nc32)CC1` (stereo not given), for which the GI50 was 1420 nM and 335 nM; the TGI was 6.95 µM and 4.7 µM.
Consider `C#Cc1ccc(-n2c(/C=C/c3ccc(C(F)(F)F)cc3)nc3ncccc3c2=O)cc1`, for which the GI50 is 1680 nM and the TGI turned out to be 3.17 µM.
In turn, `CC1=C(C(=O)NCc2ccccc2)C(/C=C/c2ccccc2)C(C(=O)NCc2ccccc2)=C(C)N1` gave a TGI of over 100 µM.
`C=C1C(=O)C23CC1CCC2C12CO[C@@H]4OCC(C)(CC[C@@H]1OC3=O)C42` (stereo not given in full) came in with a TGI of 14.8 µM.

For the next assay, the system named is SR leukemia. The assay is described as follows: growth of human tumour cells (NCI), 48 h.
Take `COC1CCC(N2C(=O)CNc3ncc(-c4ccc(C(C)(C)O)nc4)nc32)CC1` (stereo not given): the GI50 is 1060 nM and 331 nM; the TGI was over 47.2 µM.
For the compound `C#Cc1ccc(-n2c(/C=C/c3ccc(C(F)(F)F)cc3)nc3ncccc3c2=O)cc1`, the GI50 is 2000 nM and the TGI was determined as 8.08 µM.
In turn, `CC1=C(C(=O)NCc2ccccc2)C(/C=C/c2ccccc2)C(C(=O)NCc2ccccc2)=C(C)N1` gave a TGI of over 100 µM.
Regarding `C=C1C(=O)C23CC1CCC2C12CO[C@@H]4OCC(C)(CC[C@@H]1OC3=O)C42` (stereo not given in full), the TGI was 26.4 µM.

The subject of the next assay is SNB-75 CNS. The assay is described as follows: growth of human tumour cells (NCI), 48 h.
Take `COC1CCC(N2C(=O)CNc3ncc(-c4ccc(C(C)(C)O)nc4)nc32)CC1` (stereo not given): the GI50 was 281 nM and 54.3 nM; the TGI is 3.54 µM and 1.6 µM.
As for `C#Cc1ccc(-n2c(/C=C/c3ccc(C(F)(F)F)cc3)nc3ncccc3c2=O)cc1`, the GI50 is 1810 nM and the TGI is 7.22 µM.
For the compound `CC1=C(C(=O)NCc2ccccc2)C(/C=C/c2ccccc2)C(C(=O)NCc2ccccc2)=C(C)N1`, the TGI is over 100 µM.
The same measure, in the same setting: next, `C=C1C(=O)C23CC1CCC2C12CO[C@@H]4OCC(C)(CC[C@@H]1OC3=O)C42` (stereo not given in full): 30.8 µM.

The subject of another assay is HCC-2998 colon. The assay is described as follows: growth of human tumour cells (NCI), 48 h.
With `COC1CCC(N2C(=O)CNc3ncc(-c4ccc(C(C)(C)O)nc4)nc32)CC1` (stereo not given), the GI50 is 1980 nM and 306 nM; the TGI was over 39.2 µM.
On to `C#Cc1ccc(-n2c(/C=C/c3ccc(C(F)(F)F)cc3)nc3ncccc3c2=O)cc1`, for which the GI50 was 1960 nM and the TGI worked out at 3.47 µM.
In the case of `CC1=C(C(=O)NCc2ccccc2)C(/C=C/c2ccccc2)C(C(=O)NCc2ccccc2)=C(C)N1`, the TGI was over 100 µM.
Same read-out and setting: the value for `C=C1C(=O)C23CC1CCC2C12CO[C@@H]4OCC(C)(CC[C@@H]1OC3=O)C42` (stereo not given in full) was 30.9 µM.

For a further assay, the system named is ACHN renal. The experiment in a line: growth of human tumour cells (NCI), 48 h.
As for `COC1CCC(N2C(=O)CNc3ncc(-c4ccc(C(C)(C)O)nc4)nc32)CC1` (stereo not given), the GI50 was 1070 nM and 205 nM; the TGI is over 100 µM.
On to `C#Cc1ccc(-n2c(/C=C/c3ccc(C(F)(F)F)cc3)nc3ncccc3c2=O)cc1`, for which the GI50 was 1710 nM and the TGI was 3.26 µM.
The compound `CC1=C(C(=O)NCc2ccccc2)C(/C=C/c2ccccc2)C(C(=O)NCc2ccccc2)=C(C)N1` gave a TGI of over 100 µM.
The same measure, in the same setting: the value for `C=C1C(=O)C23CC1CCC2C12CO[C@@H]4OCC(C)(CC[C@@H]1OC3=O)C42` (stereo not given in full) was 9.4 µM.
